# In EP0973746B1, “SUBSTITUTED 3-CYANO QUINOLINES” (Wyeth Holdings Corporation, priority 1997, dated 1998):
# Where two headings read alike, the source gives them in different places.
# Assays:
# T47D = assay: Inhibition of cancer cell growth as measured by cell number, T47D; type: cell-based; conditions: Homo sapiens
# CCRF-CFM = assay: Inhibition of cancer cell growth as measured by cell number, CCRF-CFM; type: cell-based; conditions: Homo sapiens, read-out: IC50 CCRF-CFM
# A2780DDP = assay: Inhibition of cancer cell growth as measured by cell number, A2780DDP; type: cell-based; conditions: Homo sapiens, read-out: IC50 A2780DDP
# NHEK = assay: Inhibition of cell growth by incorporation of [3H]-thymidine, NHEK; type: cell-based, human; conditions: Homo sapiens, read-out: IC50 NHEK
# Experimental: Representative compounds of this invention were evaluated for their ability to inhibit the growth of the cell lines described below in vitro. The inhibition is quantitated by measuring the decrease in the incorporation of radio-labeled thymidine when the cells are grown in the presence of the inhibitor. […] Cells were routinely grown in a humidified incubator in 5% CO2 in air.
# Cells were seeded at 10,000 cells/well in 96 well plates in complete media and allowed to grow to log phase. At this stage the complete media was replaced with media containing 0.5% FBS (for cells growing in 10% FBS) or media lacking epidermal growth factor (EGF) (for cells growing in serum free media). […] Media with test compound was then removed and complete media was added back. The cells were allowed to grow for 18 hours. This is followed by incubation in [^3H]thymidine (1mCi/ml in serum/EGF media) for 4 hours. Cells were lysed in 0.5 M NaOH for at least 30 min at 37°C and radioactivity analyzed.
# The % inhibition of the compound evaluated was determined for at least three different concentrations and the IC50 value evaluated from the dose response curve. […] CPM(control) is in units of counts per minute and is a number expressing the amount of [^3H]thymidine incorporated onto the DNA when cells are grown in the absence of test compound as measured by liquid scintillation counting.
# DU145 = assay: Inhibition of cancer cell growth as measured by cell number, DU145; type: cell-based; conditions: Homo sapiens, read-out: IC50 DU145
# PC3 = assay: Inhibition of cancer cell growth as measured by cell number, PC3; type: cell-based; conditions: Homo sapiens, read-out: IC50 PC3
# COLO205 = assay: Inhibition of cancer cell growth as measured by cell number, COLO205; type: cell-based; conditions: Homo sapiens, read-out: IC50 COLO205
# A549 = assay: Inhibition of cancer cell growth as measured by cell number, A549; type: cell-based; conditions: Homo sapiens, read-out: IC50 A549
# LNCAP = assay: Inhibition of cancer cell growth as measured by cell number, LNCAP; type: cell-based; conditions: Homo sapiens
# NEC = assay: Inhibition of cancer cell growth as measured by cell number, NEC; type: cell-based; conditions: Homo sapiens, read-out: IC50 NEC
# CX1 = assay: Inhibition of cancer cell growth as measured by cell number, CX1; type: cell-based; conditions: Homo sapiens, read-out: IC50 CX1
# LOX = assay: Inhibition of cancer cell growth as measured by cell number, LOX; type: cell-based, human; conditions: Homo sapiens, LOX, 48 h, Table 6;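 also: LOX cells served as a line with low or absent EGFR and HER2/neu expression, in contrast to receptor-overexpressing lines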
# Text: (§1) The cell lines were chosen since they overexpressed epidermal growth factor receptor (EGFR) (i.e. A431) or HER2/neu (SKBR3), or had little to no expression of the these receptors (SW620, LOX, MCF7).
# B7474 = assay: Inhibition of cancer cell growth as measured by cell number, B7474; type: cell-based; conditions: Homo sapiens, read-out: IC50 B7474
# HCT15 = assay: Inhibition of cancer cell growth as measured by cell number, HCT15; type: cell-based; conditions: Homo sapiens, read-out: IC50 HCT15
# SW948 = assay: Inhibition of cancer cell growth as measured by cell number, SW948; type: cell-based; conditions: Homo sapiens, read-out: IC50 SW948
# HL60 = assay: Inhibition of cancer cell growth as measured by cell number, HL60; type: cell-based; conditions: Homo sapiens, read-out: IC50 HL60
# A27805 = assay: Inhibition of cancer cell growth as measured by cell number, A27805; type: cell-based; conditions: Homo sapiens, read-out: IC50 A27805
# MIP = assay: Inhibition of cancer cell growth as measured by cell number, MIP; type: cell-based; conditions: Homo sapiens; cell number, Sulforhodamine B, 48 hours exposure; Table 4; read-out: IC50 MIP
# CACO2 = assay: Inhibition of cancer cell growth as measured by cell number, CACO2; type: cell-based; conditions: Homo sapiens, read-out: IC50 CACO2
# [1] = target: recombinant human MEK 1 (MAPKK) and recombinant human ERK2 (MAPK); assay: Mitogen Activated Protein Kinase (MAPK) assay, two component coupled MEK 1 / ERK2; type: biochemical; conditions: separate entries for the same compound = evaluated more than one time;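 also: MEK 1-activated ERK2 phosphorylates MBP or Myc peptide with 33P-ATP, filter capture and scintillation counting, inhibitor preincubated with ERK2 30 min at 0 °C, inhibition relative to uninhibited control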
# CCL228 = assay: Inhibition of cancer cell growth as measured by cell number, CCL228; type: cell-based; conditions: Homo sapiens, read-out: IC50 CCL228
# A431 [2] = assay: Inhibition of cancer cell growth as measured by cell number, A431; type: cell-based, human; conditions: Homo sapiens, A-431, 48 h, Table 6;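 also: human A431 line, picked because it overexpresses epidermal growth factor receptor (EGFR)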
# Text: as §1
# SKBR3 = assay: Inhibition of cancer cell growth as measured by cell number, SKBR3; type: cell-based, human; conditions: Homo sapiens, Table 7;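 also: SK-BR-3 cells were selected as a line overexpressing HER2/neu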
# Text: as §1
# LX1 = assay: Inhibition of cancer cell growth as measured by cell number, LX1; type: cell-based; conditions: Homo sapiens, read-out: IC50 LX1
# HTB161 = assay: Inhibition of cancer cell growth as measured by cell number, HTB161; type: cell-based; conditions: Homo sapiens, read-out: IC50 HTB161
# A431 [3] = assay: Inhibition of cell growth by incorporation of [3H]-thymidine, A431; type: cell-based, human; conditions: Homo sapiens
# LS174T = assay: Inhibition of cancer cell growth as measured by cell number, LS174T; type: cell-based; conditions: Homo sapiens
# SW620 = assay: Inhibition of cancer cell growth as measured by cell number, SW620; type: cell-based, human; conditions: Homo sapiens, SW-620, 48 h, Table 4;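 also: SW620 was included as a cell line with little or no EGFR or HER2/neu expression, in contrast to receptor-overexpressing lines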
# Text: as §1
# MCF7 = assay: Inhibition of cancer cell growth as measured by cell number, MCF7; type: cell-based, human; conditions: Homo sapiens, MCF7, 48 h, Table 5;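 also: MCF7 was included as a line with little or no EGFR or HER2/neu expression, in contrast to the receptor-overexpressing lines of the panel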
# Text: as §1
# [4] = target: epidermal growth factor receptor kinase (Homo sapiens, UniProt P00533); assay: biochemical
# Experimental: The enzyme was obtained as a membrane extract of A431 cells (American Type Culture Collection, Rockville, MD). A431 cells were grown in T175 flasks to 80% confluency. The cells were washed twice with phosphate buffered saline (PBS) without Ca^2+. Flasks were rotated for 1.5 hours in 20 ml PBS with 1.0 mM ethylenediaminetetraacetic acid (EDTA) at room temperature and centrifuged at 600g for 10 minutes. The cells were solubilized in 1 ml per 5 x 10^6 cells of cold lysis buffer {10mM 4-(2-hydroxyethyl)-1-piperazineethane-sulfonic acid (HEPES), pH 7.6, 10 mM NaCl, 2mM EDTA, 1mM phenylmethyl-sulfonyl-fluoride (PMSF), 10 mg/ml aprotinin, 10 mg/ml leupeptin, 0.1 mM sodium orthovanadate} in a Dounce homogenizer with 10 strokes on ice. The lysate was centrifuged at 600g for 10 minutes first to clear cell debris and the supernatant further centrifuged at 100,000 g for 30 min at 4°C. The membrane pellet was suspended in 1.5 ml HNG buffer (50 mM HEPES, pH 7.6, 125 mM NaCl, 10% glycerol). The membrane extract was divided into aliquots, immediately frozen in liquid nitrogen and stored at -70°C.
# Compounds to be evaluated were made into 10 mg/ml stock solutions in 100% dimethylsulfoxide (DMSO). Prior to experiment, stock solutions were diluted to 500 mM with buffer (30 mM Hepes pH 7.4) and then serially diluted to the desired concentration.
# An aliquot of the A431 membrane extract (10 mg/ml) was diluted in 30 mM HEPES (pH 7.4) to give a protein concentration of 50 ug/ml. […] To this was added the ^33p-ATP (10 mCi/ml) diluted 1:10 in assay buffer along with the substrate peptide at a concentration of 0.5 mM (control reactions get no test compound) and the reaction was allowed to proceed for 30 min at 30°C. The reaction was stopped with 10% TCA and left on ice for at least 10 min after which tubes were microcentrifuged at full speed for 15 min. The a portion of the supernatants were spotted on P81 phosphocellulose discs and washed twice in 1% acetic acid then water for 5 min each followed by scintillation counting. […] The % inhibition of the test compound was determined for at least three different concentrations and the IC50 value was evaluated from the dose response curve. […] CPM(control) is in units of counts per minute and was a number expressing the amount of radiolabeled ATP (g-^33P) incorporated into the RR-SRC peptide substrate by the enzyme after 30 minutes at 30°C in the absence of test compound as measured by liquid scintillation counting. The CPM values were corrected for the background counts produced by ATP in the absence of the enzymatic reaction. The IC50 values reported in TABLE 1 are averages of the number of tests conducted.
# [5] = read-out: IC50 LOX, cell number, Sulforhodamine B, 48 hours exposure
# [6] = read-out: IC50 A431, cell number, Sulforhodamine B, 48 hours exposure
# [7] = SK-BR-3, 48 h, read-out: IC50 SKBR3, cell number, Sulforhodamine B, 48 hours exposure
# [8] = read-out: IC50 SW620, cell number, Sulforhodamine B, 48 hours exposure
# [9] = read-out: IC50 MCF7, cell number, Sulforhodamine B, 48 hours exposure
# [10] = cell number, Sulforhodamine B, 48 hours exposure, Table 6, read-out: IC50 T47D
# [11] = cell number, Sulforhodamine B, 48 hours exposure, Table 7
# [12] = cell number, Sulforhodamine B, 48 hours exposure, Table 4
# [13] = DU-145, cell number, Sulforhodamine B, 48 hours exposure, Table 7
# [14] = PC-3, cell number, Sulforhodamine B, 48 hours exposure, Table 7
# [15] = A549, cell number, Sulforhodamine B, 48 hours exposure, Table 6
# [16] = CX-1, cell number, Sulforhodamine B, 48 hours exposure, Table 4
# [17] = cell number, Sulforhodamine B, 48 hours exposure, read-out: IC50 LOX
# [18] = cell number, Sulforhodamine B, 48 hours exposure, Table 6
# [19] = HCT-15, cell number, Sulforhodamine B, 48 hours exposure, Table 5
# [20] = SW948, cell number, Sulforhodamine B, 48 hours exposure, Table 5
# [21] = HL-60, cell number, Sulforhodamine B, 48 hours exposure, Table 7
# [22] = Caco-2, cell number, Sulforhodamine B, 48 hours exposure, Table 5
# [23] = cell number, Sulforhodamine B, 48 hours exposure, Table 5
# [24] = cell number, Sulforhodamine B, 48 hours exposure, read-out: IC50 A431
# [25] = LX-1, cell number, Sulforhodamine B, 48 hours exposure, Table 6
# [26] = A-431, [3H]-thymidine incorporation, A431, read-out: IC50 A431
# [27] = cell number, Sulforhodamine B, 48 hours exposure, Table 5, read-out: IC50 LS174T
# [28] = cell number, Sulforhodamine B, 48 hours exposure, read-out: IC50 SW620
# Chain of epidermal growth factor receptor kinase (P00533 25-1210): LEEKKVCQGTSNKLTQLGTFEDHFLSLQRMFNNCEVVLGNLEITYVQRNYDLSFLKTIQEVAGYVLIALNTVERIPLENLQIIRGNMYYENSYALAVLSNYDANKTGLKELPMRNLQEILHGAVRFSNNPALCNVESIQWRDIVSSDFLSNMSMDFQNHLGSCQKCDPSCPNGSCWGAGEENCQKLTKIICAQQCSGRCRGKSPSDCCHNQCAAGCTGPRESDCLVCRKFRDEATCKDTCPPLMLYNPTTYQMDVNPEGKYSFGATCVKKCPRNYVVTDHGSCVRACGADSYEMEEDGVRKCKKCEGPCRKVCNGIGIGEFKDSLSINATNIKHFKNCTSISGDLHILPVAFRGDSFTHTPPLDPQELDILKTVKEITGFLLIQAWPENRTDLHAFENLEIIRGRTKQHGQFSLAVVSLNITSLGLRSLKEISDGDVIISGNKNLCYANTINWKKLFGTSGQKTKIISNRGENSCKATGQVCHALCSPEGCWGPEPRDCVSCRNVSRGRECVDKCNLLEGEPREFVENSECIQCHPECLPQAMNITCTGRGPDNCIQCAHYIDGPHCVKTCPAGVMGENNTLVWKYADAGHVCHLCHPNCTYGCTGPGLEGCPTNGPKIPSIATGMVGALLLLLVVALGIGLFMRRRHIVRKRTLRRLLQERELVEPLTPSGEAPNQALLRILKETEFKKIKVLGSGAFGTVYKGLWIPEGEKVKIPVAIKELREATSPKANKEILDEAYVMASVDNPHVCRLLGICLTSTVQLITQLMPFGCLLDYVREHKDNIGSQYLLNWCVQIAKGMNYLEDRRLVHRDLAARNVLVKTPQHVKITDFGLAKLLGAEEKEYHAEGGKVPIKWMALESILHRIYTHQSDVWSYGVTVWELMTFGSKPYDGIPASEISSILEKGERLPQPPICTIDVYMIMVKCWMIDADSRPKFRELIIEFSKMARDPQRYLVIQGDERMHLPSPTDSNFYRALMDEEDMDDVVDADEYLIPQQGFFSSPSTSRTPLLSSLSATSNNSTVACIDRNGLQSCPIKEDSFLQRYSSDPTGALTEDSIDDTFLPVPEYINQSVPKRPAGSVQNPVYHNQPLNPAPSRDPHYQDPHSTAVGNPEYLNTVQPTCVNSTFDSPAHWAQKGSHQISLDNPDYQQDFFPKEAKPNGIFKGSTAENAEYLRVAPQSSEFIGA
structure (smiles),measurement,setting,value
"COc1cc2ncc(C#N)c(Nc3cccc(Br)c3)c2cc1N [Example 7, 6-Amino-4-[(3-bromophenyl)amino] -7-methoxy-3-quinolinecarbonitrile]",IC50,"T47D; 48 h, read-out: IC50 T47D",5.17 mg/L
same,IC50,CCRF-CFM; 48 h,3.44 mg/L
same,IC50,A2780DDP; 48 h,4.91 mg/L
same,IC50,NHEK,4.5 µM
same,IC50,"DU145; DU-145, 48 h",1.09 mg/L
same,IC50,"PC3; PC-3, 48 h",7.22 mg/L
same,IC50,"COLO205; COLO 205, 48 h",4.83 mg/L
same,IC50,"A549; A549, 48 h",5.93 mg/L
same,IC50,"LNCAP; 48 h, read-out: IC50 LNCAP",2.19 mg/L
same,IC50,NEC; 48 h,5.18 mg/L
same,IC50,"CX1; CX-1, 48 h",4.88 mg/L
same,IC50,LOX; [5],1.45 mg/L
same,IC50,B7474; 48 h,3.88 mg/L
same,IC50,"HCT15; HCT-15, 48 h",3.98 mg/L
same,IC50,"SW948; SW948, 48 h",5.85 mg/L
same,IC50,"HL60; HL-60, 48 h",2.63 mg/L
same,IC50,A27805; 48 h,4.66 mg/L
same,IC50,MIP,2.39 mg/L
same,IC50,"CACO2; Caco-2, 48 h",2.3 mg/L
same,IC50,[1],25 µM
same,IC50,CCL228; 48 h,6.25 mg/L
same,IC50,A431 [2]; [6],1.06 mg/L
same,IC50,SKBR3; [7],5.6 mg/L
same,IC50,"LX1; LX-1, 48 h",6.3 mg/L
same,IC50,HTB161; 48 h,2.12 mg/L
same,IC50,"A431 [3]; A-431, read-out: IC50 A431",> 50 µM
same,IC50,"LS174T; 48 h, read-out: IC50 LS174T",3.23 mg/L
same,IC50,SW620; [8],5.84 mg/L
same,IC50,MCF7; [9],5.67 mg/L
"CC#CC(=O)Nc1cc2c(Nc3cccc(Br)c3)c(C#N)cnc2cc1OC [Example 8, N-[4-[(3-Bromophenyl)amino]-3-cyano-7-methoxy-6-guinolinyl]-2-butynamide]",IC50,"T47D; 48 h, read-out: IC50 T47D",39.5 mg/L
same,IC50,CCRF-CFM; 48 h,0.823 mg/L
same,IC50,A2780DDP; 48 h,6.79 mg/L
same,IC50,NHEK,0.2 µM
same,IC50,"DU145; DU-145, 48 h",6.47 mg/L
same,IC50,"PC3; PC-3, 48 h",53.4 mg/L
same,IC50,"COLO205; COLO 205, 48 h",2.49 mg/L
same,IC50,"A549; A549, 48 h",7.28 mg/L
same,IC50,"LNCAP; 48 h, read-out: IC50 LNCAP",59.4 mg/L
same,IC50,NEC; 48 h,9.3 mg/L
same,IC50,"CX1; CX-1, 48 h",7.55 mg/L
same,IC50,LOX; [5],0.647 mg/L
same,IC50,B7474; 48 h,55.5 mg/L
same,IC50,"HCT15; HCT-15, 48 h",10.9 mg/L
same,IC50,"SW948; SW948, 48 h",86.9 mg/L
same,IC50,"HL60; HL-60, 48 h",18.9 mg/L
same,IC50,A27805; 48 h,0.912 mg/L
same,IC50,MIP,0.354 mg/L
same,IC50,"CACO2; Caco-2, 48 h",2.33 mg/L
same,IC50,[1],> 100 µM
same,IC50,CCL228; 48 h,8.67 mg/L
same,IC50,[4],0.15 µM
same,IC50,A431 [2]; [6],9.59 mg/L
same,IC50,SKBR3; [7],38.3 mg/L
same,IC50,"LX1; LX-1, 48 h",0.932 mg/L
same,IC50,HTB161; 48 h,98.8 mg/L
same,IC50,"A431 [3]; A-431, read-out: IC50 A431",40 µM
same,IC50,"LS174T; 48 h, read-out: IC50 LS174T",2.03 mg/L
same,IC50,SW620; [8],2.5 mg/L
same,IC50,MCF7; [9],53.2 mg/L
"CC(=O)Nc1ccc2ncc(C#N)c(Nc3cccc(Br)c3)c2c1 [Example 16, N-[4-[(3-Bromophenyl)amino]-3-cyano-6-quinolinyl] acetamide]",IC50,T47D; [10],6.55 mg/L
same,IC50,CCRF-CFM; [11],0.729 mg/L
same,IC50,A2780DDP; [12],0.596 mg/L
same,IC50,NHEK; [3H]-thymidine incorporation,0.06 µM
same,IC50,DU145; [13],0.113 mg/L
same,IC50,PC3; [14],3.04 mg/L
same,IC50,A549; [15],0.214 mg/L
same,IC50,CX1; [16],0.978 mg/L
same,IC50,LOX; [17],0.316 mg/L
same,IC50,B7474; [18],0.899 mg/L
same,IC50,HCT15; [19],0.641 mg/L
same,IC50,SW948; [20],0.928 mg/L
same,IC50,HL60; [21],0.696 mg/L
same,IC50,A27805; [12],0.602 mg/L
same,IC50,MIP,0.534 mg/L
same,IC50,CACO2; [22],0.71 mg/L
same,IC50,CCL228; [23],4.38 mg/L
same,IC50,[4],0.0015 µM
same,IC50,A431 [2]; [24],0.766 mg/L
same,IC50,LX1; [25],0.644 mg/L
same,IC50,HTB161; [12],0.667 mg/L
same,IC50,A431 [3]; [26],1.8 µM
same,IC50,LS174T; [27],0.434 mg/L
same,IC50,SW620; [28],> 100 mg/L
"CCCC(=O)Nc1ccc2ncc(C#N)c(Nc3cccc(Br)c3)c2c1 [Example 17, N-[4-[(3-Bromophenyl)amino]-3-cyano-6-quinolinyl] butanamide]",IC50,T47D; [10],> 100 mg/L
same,IC50,CCRF-CFM; [11],> 100 mg/L
same,IC50,A2780DDP; [12],60.4 mg/L
same,IC50,NHEK; [3H]-thymidine incorporation,9 µM
same,IC50,DU145; [13],7.81 mg/L
same,IC50,PC3; [14],> 100 mg/L
same,IC50,"COLO205; COLO 205, cell number, Sulforhodamine B, 48 hours exposure, Table 4",> 100 mg/L
same,IC50,A549; [15],> 100 mg/L
same,IC50,"LNCAP; cell number, Sulforhodamine B, 48 hours exposure, Table 7, read-out: IC50 LNCAP",90 mg/L
same,IC50,NEC; [18],> 100 mg/L
same,IC50,CX1; [16],81.9 mg/L
same,IC50,LOX; [17],74.2 mg/L
same,IC50,B7474; [18],95.7 mg/L
same,IC50,HCT15; [19],98.9 mg/L
same,IC50,SW948; [20],> 100 mg/L
same,IC50,HL60; [21],> 100 mg/L
same,IC50,A27805; [12],9.8 mg/L
same,IC50,MIP,100 mg/L
same,IC50,CACO2; [22],5.63 mg/L
same,IC50,[1],> 100 µM
same,IC50,CCL228; [23],> 100 mg/L
same,IC50,[4],9 µM
same,IC50,A431 [2]; [24],38.1 mg/L
same,IC50,"SKBR3; SK-BR-3, cell number, Sulforhodamine B, 48 hours exposure, read-out: IC50 SKBR3",79.7 mg/L
same,IC50,LX1; [25],> 100 mg/L
same,IC50,HTB161; [12],7.89 mg/L
same,IC50,A431 [3]; [26],25 µM
same,IC50,LS174T; [27],87 mg/L
same,IC50,SW620; [28],> 100 mg/L
same,IC50,"MCF7; cell number, Sulforhodamine B, 48 hours exposure, read-out: IC50 MCF7",68.2 mg/L
